Where “and” joins values, the source holds several entries; their conditions need not be identical. Equal entries are not always repeated. Toxic doses and inconclusive results are not listed.
Test system: CD2F1 mice, L1210 leukemia ip, survival T/C
Assay: NCI In Vivo Anticancer Drug Screen. Data for tumor model L1210 Leukemia (intraperitoneal) in CD2F1 (CDF1) mice
Settings: higher = longer survival
In short: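 Tumor-bearing mice (transplanted tumor) were split into treated and vehicle control groups, and the measured endpoint of each treated group was divided by that of its vehicle controls.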

[1] = endpoint: mean survival time, dose: 50.0 mg/kg/injection, schedule: Q04DX003 (ip), vehicle: saline with Tween-80
[2] = endpoint: mean survival time, dose: 100.0 mg/kg/injection, schedule: Q04DX003 (ip), vehicle: saline with Tween-80
[3] = endpoint: mean survival time, dose: 200.0 mg/kg/injection, schedule: Q01DX001 (ip), vehicle: saline with Tween-80
[4] = endpoint: mean survival time, dose: 50.0 mg/kg/injection, schedule: Q01DX009 (ip), vehicle: saline with Tween-80
[5] = endpoint: mean survival time, dose: 100.0 mg/kg/injection, schedule: Q01DX009 (ip), vehicle: saline with Tween-80
[6] = endpoint: mean survival time, dose: 200.0 mg/kg/injection, schedule: Q01DX009 (ip), vehicle: saline with Tween-80
[7] = endpoint: mean survival time, dose: 200.0 mg/kg/injection, schedule: Q04DX003 (ip), vehicle: saline with Tween-80
[8] = endpoint: mean survival time, dose: 400.0 mg/kg/injection, schedule: Q04DX003 (ip), vehicle: saline with Tween-80
[9] = endpoint: mean survival time, dose: 0.78 mg/kg/injection, schedule: Q01DX009 (ip), vehicle: water
[10] = endpoint: mean survival time, dose: 1.56 mg/kg/injection, schedule: Q01DX009 (ip), vehicle: water
[11] = endpoint: mean survival time, dose: 3.13 mg/kg/injection, schedule: Q01DX009 (ip), vehicle: water
[12] = endpoint: mean survival time, dose: 6.25 mg/kg/injection, schedule: Q01DX009 (ip), vehicle: water
[13] = endpoint: mean survival time, dose: 12.5 mg/kg/injection, schedule: Q01DX009 (ip), vehicle: water
[14] = endpoint: mean survival time, dose: 25.0 mg/kg/injection, schedule: Q04DX003 (ip), vehicle: saline with Tween-80
[15] = endpoint: mean survival time, dose: 400.0 mg/kg/injection, schedule: Q01DX001 (ip), vehicle: saline
[16] = endpoint: mean survival time, dose: 100.0 mg/kg/injection, schedule: Q01DX001 (ip), vehicle: saline with Tween-80
[17] = endpoint: mean survival time, dose: 400.0 mg/kg/injection, schedule: Q01DX001 (ip), vehicle: saline with Tween-80
[18] = endpoint: mean survival time, dose: 400.0 mg/kg/injection, schedule: Q01DX009 (ip), vehicle: saline with Tween-80
[19] = endpoint: mean survival time, dose: 25.0 mg/kg/injection, schedule: Q01DX009 (ip), vehicle: saline with Tween-80

For `O=c1[nH]cnc2c1CN(c1ccccc1)C2`, the T/C (endpoint: mean survival time, dose: 75.0 mg/kg/injection, schedule: Q01DX001 (ip), vehicle: saline) was 113 % of control and the T/C (endpoint: mean survival time, dose: 150.0 mg/kg/injection, schedule: Q01DX001 (ip), vehicle: saline) was 104 % of control.
For `CCOC(=O)C12CCCCC1C/C(=N/NC(N)=O)CC2` (stereo not given), the T/C [1] was 96 % of control, the T/C (endpoint: mean survival time, dose: 100.0 mg/kg/injection, schedule: Q01DX001 (ip), vehicle: acetone) was 92 % of control and the T/C (endpoint: mean survival time, dose: 100.0 mg/kg/injection, schedule: Q04DX003 (ip), vehicle: acetone) was 96 % of control. The T/C [2] was 96 % of control, the T/C (endpoint: mean survival time, dose: 200.0 mg/kg/injection, schedule: Q01DX001 (ip), vehicle: acetone) was 94 % of control and the T/C [3] was 88 % of control. For the same molecule, the T/C (endpoint: mean survival time, dose: 200.0 mg/kg/injection, schedule: Q04DX003 (ip), vehicle: acetone) was 90 % of control, the T/C (endpoint: mean survival time, dose: 400.0 mg/kg/injection, schedule: Q01DX001 (ip), vehicle: acetone) was 97 % of control and the T/C (endpoint: mean survival time, dose: 400.0 mg/kg/injection, schedule: Q04DX003 (ip), vehicle: acetone) was 90 % of control.
In the case of `Cc1cc2nc(Cc3nc4cc(C)c(C)cc4[nH]3)[nH]c2cc1C`, the T/C [4] is reported as 93 % of control, the T/C [5] is reported as 87 % of control and the T/C [6] is reported as 88 % of control.
With `CCCCNC(C)(C)C(SS)c1ccc(C(F)(F)F)cc1` (stereo not given) the T/C (endpoint: mean survival time, dose: 100.0 mg/kg/injection, schedule: Q04DX003 (ip), vehicle: other) was 94 % of control and the T/C (endpoint: mean survival time, dose: 400.0 mg/kg/injection, schedule: Q04DX003 (ip), vehicle: other) was 86 % of control.
For `Nc1cc(Nc2ccc(Cl)cc2)c2nc(-c3ccc(Cl)cc3)c(-c3ccc(Cl)cc3)nc2n1`, the T/C [2] was 100 % of control, the T/C [7] was 107 % of control and the T/C [8] was 107 % of control.
With `C[n+]1c(-c2cccc3ccccc23)c2cc(N)ccc2c2ccccc21` the T/C [9] was 106 % of control, the T/C (endpoint: mean survival time, dose: 1.56 mg/kg/injection, schedule: Q01DX009 (ip), vehicle: saline) was 108 % of control and the T/C [10] was 103 % of control. The T/C (endpoint: mean survival time, dose: 3.12 mg/kg/injection, schedule: Q01DX009 (ip), vehicle: saline) was 118 % of control, the T/C [11] was 111 % of control and the T/C (endpoint: mean survival time, dose: 3.5 mg/kg/injection, schedule: Q01DX009 (ip), vehicle: water) was 104 % of control. The T/C (endpoint: mean survival time, dose: 5.3 mg/kg/injection, schedule: Q01DX009 (ip), vehicle: water) was 106 % of control, the T/C (endpoint: mean survival time, dose: 6.25 mg/kg/injection, schedule: Q01DX009 (ip), vehicle: saline) was 106 % of control and the T/C [12] was 97 % of control and 110 % of control. For the same molecule, the T/C (endpoint: mean survival time, dose: 8.0 mg/kg/injection, schedule: Q01DX009 (ip), vehicle: water) was 114 % of control, the T/C (endpoint: mean survival time, dose: 12.0 mg/kg/injection, schedule: Q01DX009 (ip), vehicle: water) was 121 % of control and the T/C (endpoint: mean survival time, dose: 12.5 mg/kg/injection, schedule: Q01DX009 (ip), vehicle: saline) was 116 % of control. For the same molecule, the T/C [13] was 119 % of control and 122 % of control, the T/C (endpoint: mean survival time, dose: 18.0 mg/kg/injection, schedule: Q01DX009 (ip), vehicle: water) was 112 % of control and the T/C (endpoint: mean survival time, dose: 25.0 mg/kg/injection, schedule: Q01DX009 (ip), vehicle: saline) was 93 % of control.
With `CCNC(=S)Nc1ccc(Cl)cc1` the T/C [14] was 104 % of control, the T/C [1] was 101 % of control and the T/C [2] was 91 % of control.
`CCOC1=C(C#N)CC2(CC1)c1ccccc1-c1ccccc12` was tested, and the T/C (endpoint: mean survival time, dose: 100.0 mg/kg/injection, schedule: Q04DX003 (ip), vehicle: Klucel (hydroxypropylcellulose) (HPC)) was 96 % of control, the T/C (endpoint: mean survival time, dose: 200.0 mg/kg/injection, schedule: Q04DX003 (ip), vehicle: Klucel (hydroxypropylcellulose) (HPC)) was 102 % of control and the T/C (endpoint: mean survival time, dose: 400.0 mg/kg/injection, schedule: Q04DX003 (ip), vehicle: Klucel (hydroxypropylcellulose) (HPC)) was 101 % of control.
In the case of `[O-][n+]1cc(N=Nc2ccc(Cl)cc2)nn1-c1ccc(Cl)cc1`, the T/C [15] is reported as 86 % of control.
`CCOC(=O)Cc1cnc(SC)nc1Nc1ccc(Br)cc1` was tested, and the T/C [16] was 89 % of control, the T/C [3] was 89 % of control and the T/C [17] was 100 % of control.
For `COc1ccc(OCCOC(=O)Nc2c(Cl)cccc2Cl)cc1`, the T/C [4] was 98 % of control, the T/C [5] was 94 % of control and the T/C [6] was 94 % of control.
For `COC(=O)c1ccccc1NC(=O)CCl`, the T/C [4] was 96 % of control, the T/C [5] was 98 % of control and the T/C [6] was 94 % of control.
In the case of `CC(C)NCCCC(=O)O`, the T/C [13] is reported as 96 % of control, the T/C (endpoint: mean survival time, dose: 25.0 mg/kg/injection, schedule: Q01DX009 (ip), vehicle: water) is reported as 98 % of control and the T/C (endpoint: mean survival time, dose: 50.0 mg/kg/injection, schedule: Q01DX009 (ip), vehicle: water) is reported as 90 % of control. For the same molecule, the T/C (endpoint: mean survival time, dose: 100.0 mg/kg/injection, schedule: Q01DX009 (ip), vehicle: water) was 98 % of control and the T/C (endpoint: mean survival time, dose: 200.0 mg/kg/injection, schedule: Q01DX009 (ip), vehicle: water) was 95 % of control.
`CC1Cc2ccccc2C1=O` (stereo not given) was tested, and the T/C [5] was 90 % of control, the T/C [6] was 91 % of control and the T/C [18] was 94 % of control.
For `COC(=O)c1ccccc1NC1OC(CO)C(O)C1O` (stereo not given), the T/C (endpoint: mean survival time, dose: 100.0 mg/kg/injection, schedule: Q01DX001 (ip), vehicle: saline) was 101 % of control, the T/C (endpoint: mean survival time, dose: 200.0 mg/kg/injection, schedule: Q01DX001 (ip), vehicle: saline) was 92 % of control and the T/C [15] was 91 % of control.
In the case of `CC(C)(C)OC(=O)NC(CCCCNC(=O)C(F)(F)F)C(=O)ON1C(=O)CCC1=O` (stereo not given), the T/C [14] is reported as 102 % of control, the T/C [1] is reported as 102 % of control and the T/C [2] is reported as 89 % of control and 101 % of control.
With `CCOC(=O)c1ccc(NC/C(CN)=N/O)cc1` the T/C (endpoint: mean survival time, dose: 75.0 mg/kg/injection, schedule: Q01DX001 (ip), vehicle: other) was 95 % of control and the T/C (endpoint: mean survival time, dose: 150.0 mg/kg/injection, schedule: Q01DX001 (ip), vehicle: other) was 95 % of control.
`C=CC1=NC(C)(C)CC(C)O1` (stereo not given) was tested, and the T/C [9] was 104 % of control, the T/C [10] was 102 % of control and the T/C [11] was 105 % of control. For the same molecule, the T/C [12] was 104 % of control and the T/C [13] was 100 % of control.
For `CSc1cccc(NC(=O)OCCOc2ccc(NC(C)=O)cc2)c1`, the T/C [5] was 101 % of control, the T/C [6] was 97 % of control and the T/C [18] was 93 % of control.
With `O=C(Oc1ccccc1)c1ccccc1O` the T/C [19] was 105 % of control, the T/C [4] was 109 % of control and the T/C [16] was 101 % of control. The T/C [5] was 105 % of control, the T/C [3] was 89 % of control and the T/C [17] was 95 % of control.
In the case of `CCCN(CCC)CC(=O)Nc1c(Cl)cccc1Cl`, the T/C (endpoint: mean survival time, dose: 50.0 mg/kg/injection, schedule: Q01DX009 (ip), vehicle: saline sonified) is reported as 101 % of control, the T/C (endpoint: mean survival time, dose: 100.0 mg/kg/injection, schedule: Q01DX009 (ip), vehicle: saline sonified) is reported as 96 % of control and the T/C [2] is reported as 105 % of control. For the same molecule, the T/C [7] was 105 % of control.
`Oc1ccc(CCl)c2cccnc12` was tested, and the T/C (endpoint: median survival time, dose: 12.5 mg/kg/injection, schedule: Q01DX009 (ip), vehicle: saline) was 102 % of control, the T/C (endpoint: median survival time, dose: 25.0 mg/kg/injection, schedule: Q01DX009 (ip), vehicle: saline) was 102 % of control and the T/C (endpoint: median survival time, dose: 50.0 mg/kg/injection, schedule: Q01DX009 (ip), vehicle: saline) was 102 % of control. For the same molecule, the T/C (endpoint: median survival time, dose: 100.0 mg/kg/injection, schedule: Q01DX009 (ip), vehicle: saline) was 95 % of control.
In the case of `NC(=S)N/N=C/c1ccc(OC(=O)COc2ccccc2Cl)cn1`, the T/C (endpoint: mean survival time, dose: 12.5 mg/kg/injection, schedule: Q01DX009 (ip), vehicle: saline with Tween-80) is reported as 120 % of control, the T/C [19] is reported as 122 % of control and the T/C (endpoint: mean survival time, dose: 50.0 mg/kg/injection, schedule: Q01DX001 (ip), vehicle: saline with Tween-80) is reported as 101 % of control. For the same molecule, the T/C [1] was 116 % of control and 118 % of control, the T/C [16] was 108 % of control and the T/C [5] was 159 % of control. For the same molecule, the T/C (endpoint: mean survival time, dose: 100.0 mg/kg/injection, schedule: Q04DX002 (ip), vehicle: saline with Tween-80) was 103 % of control and 106 % of control, the T/C [2] was 124 % of control and the T/C [3] was 113 % of control. For the same molecule, the T/C [6] was 155 % of control, the T/C (endpoint: mean survival time, dose: 200.0 mg/kg/injection, schedule: Q04DX002 (ip), vehicle: saline with Tween-80) was 118 % of control and 107 % of control and the T/C [8] was 152 % of control and 163 % of control.

Reference: PubChem BioAssay AID256 (DTP/NCI, 2004)
